Test results published in the NIST ThermoML archive (doi:10.1016/j.jct.2017.02.014).

Experiments:
[1] = heat capacity at constant pressure per volume; xn = mol fraction of the nth substance listed; conditions: 102.6 kPa, Liquid, DSC, x1 = 0.118
[2] = refractive index (other wavelength) (dimensionless); xn = mol fraction of the nth substance listed; conditions: 100 kPa, Liquid, Wavelength=632.8 nm, minimum deviation angle method

CCCC[n+]1ccccc1.F[B-](F)(F)F [1-butylpyridinium tetrafluoroborate] + CCO
[1]
Conditions | heat capacity [J/K/m3]
291.64 K | 2400000
291.84 K | 2413000
292.04 K | 2409000
292.24 K | 2412000
292.44 K | 2447000
292.64 K | 2446000
292.84 K | 2430000
293.04 K | 2446000
293.24 K | 2456000
293.44 K | 2452000
293.64 K | 2454000
293.84 K | 2466000
294.04 K | 2479000
294.24 K | 2512000
294.44 K | 2465000
294.64 K | 2512000
294.84 K | 2537000
295.04 K | 2539000
295.24 K | 2557000
295.44 K | 2564000
295.64 K | 2619000
295.84 K | 2578000
296.04 K | 2655000
296.24 K | 2606000
296.44 K | 2659000
296.64 K | 2847000
296.86 K | 2825000
297.04 K | 2338000
297.24 K | 2271000
297.44 K | 2220000
297.64 K | 2228000
297.84 K | 2203000
298.04 K | 2201000
298.24 K | 2198000
298.44 K | 2180000
298.64 K | 2187000
298.84 K | 2145000
299.04 K | 2169000
299.24 K | 2164000
299.44 K | 2169000
299.64 K | 2152000
299.84 K | 2153000
300.04 K | 2150000
300.24 K | 2151000
300.44 K | 2144000
300.64 K | 2130000
300.84 K | 2137000
301.24 K | 2132000
301.44 K | 2139000
301.64 K | 2140000
301.84 K | 2124000
302.04 K | 2130000
302.24 K | 2117000
302.44 K | 2124000
302.64 K | 2130000
302.84 K | 2122000
303.04 K | 2129000
303.24 K | 2131000
303.44 K | 2121000
303.63 K | 2121000
303.83 K | 2127000
304.04 K | 2126000
304.24 K | 2122000
304.44 K | 2130000
304.63 K | 2120000
304.83 K | 2123000
305.04 K | 2117000
305.24 K | 2113000
305.44 K | 2107000
305.63 K | 2112000
306.08 K | 2110000
306.51 K | 2108000
306.95 K | 2108000
307.39 K | 2107000
307.83 K | 2106000
308.26 K | 2106000
308.7 K | 2105000
309.14 K | 2104000
309.58 K | 2104000
310.02 K | 2104000
310.45 K | 2104000
310.89 K | 2105000
311.33 K | 2103000
311.77 K | 2102000
312.2 K | 2102000
312.64 K | 2102000
313.08 K | 2103000
313.52 K | 2101000
313.96 K | 2103000
314.39 K | 2101000
314.83 K | 2103000
315.27 K | 2102000
315.71 K | 2103000
316.14 K | 2102000
316.58 K | 2103000
317.02 K | 2103000
317.46 K | 2103000
317.89 K | 2105000
318.33 K | 2104000
318.77 K | 2106000
319.21 K | 2105000
319.65 K | 2107000
320.08 K | 2107000
320.52 K | 2108000
320.96 K | 2109000
321.4 K | 2109000
321.84 K | 2109000
322.27 K | 2110000
322.71 K | 2111000
323.15 K | 2110000

[2]
Conditions | refractive index
281.73 K, x1 = 1 | 1.4481
282.78 K, x1 = 1 | 1.4478
284.05 K, x1 = 0.518 | 1.4307
284.14 K, x1 = 1 | 1.4475
284.68 K, x1 = 0.394 | 1.4224
285.33 K, x1 = 0.518 | 1.4304
285.74 K, x1 = 1 | 1.4471
286.42 K, x1 = 0.394 | 1.4219
286.94 K, x1 = 1 | 1.4468
287.46 K, x1 = 0.02 | 1.3684
287.51 K, x1 = 0.518 | 1.4298
287.68 K, x1 = 0.394 | 1.4215
288.24 K, x1 = 1 | 1.4464
288.69 K, x1 = 0.518 | 1.4295
288.71 K, x1 = 0.02 | 1.3679
289.37 K, x1 = 0.394 | 1.4211
289.38 K, x1 = 1 | 1.4461
289.82 K, x1 = 0.02 | 1.3675
290.14 K, x1 = 0.518 | 1.429
290.31 K, x1 = 0.394 | 1.4207
290.37 K, x1 = 1 | 1.4458
290.46 K, x1 = 0.313 | 1.414
291.26 K, x1 = 0.02 | 1.3669
291.42 K, x1 = 0.394 | 1.4204
291.42 K, x1 = 0.518 | 1.4287
292.08 K, x1 = 0.313 | 1.4134
292.15 K, x1 = 1 | 1.4454
292.64 K, x1 = 0.02 | 1.3663
293.1 K, x1 = 0.313 | 1.4131
293.41 K, x1 = 1 | 1.4451
294.23 K, x1 = 0.313 | 1.4128
294.38 K, x1 = 0.02 | 1.3657
295 K, x1 = 1 | 1.4446
295.32 K, x1 = 0.313 | 1.4124
296.19 K, x1 = 0.258 | 1.4062
296.35 K, x1 = 0.199 | 1.3993
296.35 K, x1 = 0.313 | 1.4121
296.89 K, x1 = 1 | 1.444
296.98 K, x1 = 0.06 | 1.3745
296.98 K, x1 = 0.142 | 1.3902
297.25 K, x1 = 0.095 | 1.3817
297.52 K, x1 = 0.258 | 1.4056
298.06 K, x1 = 0.142 | 1.3899
298.21 K, x1 = 0.06 | 1.374
298.51 K, x1 = 0.199 | 1.3986
298.56 K, x1 = 0.095 | 1.3813
298.9 K, x1 = 0.258 | 1.4052
299.34 K, x1 = 0.142 | 1.3895
299.43 K, x1 = 0.06 | 1.3736
299.58 K, x1 = 0.199 | 1.3982
299.67 K, x1 = 0.095 | 1.3809
299.98 K, x1 = 0.258 | 1.4048
300.34 K, x1 = 0.142 | 1.3892
300.79 K, x1 = 0.095 | 1.3805
300.89 K, x1 = 0.06 | 1.3731
300.95 K, x1 = 0.258 | 1.4046
301.1 K, x1 = 0.199 | 1.3977
301.77 K, x1 = 0.095 | 1.3802
301.77 K, x1 = 0.142 | 1.3886
301.92 K, x1 = 0.258 | 1.4043
302.08 K, x1 = 0.06 | 1.3726
302.16 K, x1 = 0.199 | 1.3974
302.93 K, x1 = 0.095 | 1.3798
302.94 K, x1 = 0.142 | 1.3883
303.3 K, x1 = 0.199 | 1.397
303.31 K, x1 = 0.06 | 1.3722
